What was measured:
[1] = tested on: horses who suffer from podotrochlosis; test: treatment of podotrochlosis with associated osteoporosis in horses by two to five intramuscular injections; format: in vivo, horse; conditions: for therapeutic success in the treatment of podotrochlosis with associated osteoporosis: intramuscular injections
Experimental: To achieve the desired therapeutic success or else prophylactic success, a dosage regimen in which the pharmaceutical is administered by two to five intramuscular injections within a period of up to several days, such as approximately 3 consecutive days, but preferably within one day, must be adhered to. Here, the administration of the pharmaceutical may be effected in a dosage of, per injection, 0.125-2.5 mg, preferably 0.25-1 mg, particularly preferably approximately 0.6 mg of active ingredient/kg body weight. For a horse with a weight of 500 kg, a total dose of 250-2500 mg, preferably 400-1500 mg, especially preferably approximately 800 to 1000 mg of active ingredient, distributed over 2 to 5 injections, preferably 3 injections, is aimed at. With a horse with a weight of 500 kg, it is therefore especially preferable to administer 900 mg of active ingredient, divided over 3 injections of 300 mg each, within one day. The pharmaceutical is injected intramuscularly, preferably into the neck, chest and gluteal muscles of the horse. In the case of 3 injections, it is preferred to administer two injections into the neck muscles (on the left and right side), especially preferably approximately one hand's width under the crest and approximately one hand's width above the scapula, and one injection into the breast muscles. The 2 to 5 injections are expediently given directly one after the other.
After approximately 14 days, a pronounced improvement of the clinical symptoms is observed in nearly all horses. After approximately 4-6 weeks, the clinical picture has stabilized and established such that the therapeutic success can be defined. After approximately 10 to 14 months, the clinical symptoms will, as a rule, deteriorate. The treatment may then be repeated once or more than once, with equally good success. In this manner, the treated horses can be kept free from lameness over several years.
For example, the therapeutic success in a gelding who had suffered from podotrochlosis and who had not been able to be ridden, let alone used as a sports horses for about 3 years was so good after employing the pharmaceutical described in accordance with the invention that the gelding could afterwards be used intensively and successfully for 6 years as a showjumper.

podotrochlosis = conditions: in vivo; cited from earlier work

Row | SMILES | side effects ([1]; at least 350 horses pretreated with conventional therapies without success) | time until pronounced improvement of the clinical symptoms is observed in nearly all horses ([1]; horses, after treatment) | time until the clinical picture has stabilized and established ([1]; horses, after treatment) | therapeutic success in the treatment of podotrochlosis with associated osteoporosis ([1]; horses) | therapeutic success in the treatment of podotrochlosis with associated osteoporosis ([1]; horses, listed as pharmaceutical described in accordance with the invention) | freedom from lameness ([1]; many of the treated horses, regular use of the pharmaceutical) | time used intensively and successfully as a showjumper after treatment ([1]; single gelding, not able to be ridden for about 3 years before treatment) | effect on podotrochlosis (podotrochlosis) | side effects (podotrochlosis)
1 | O=P(O)(O)C(Cl)(Cl)P(=O)(O)O [clodronic acid, (dichloromethylene)bis(phosphonic acid)] | without suffering side effects | approximately 14 days | 4-6 weeks | outstanding therapeutic successes | successful therapy | free from lameness for several years | 6 years | – | –
2 | O=P(O)(O)C(Sc1ccc(Cl)cc1)P(=O)(O)O [tiludronate] | – | – | – | – | – | – | – | healing effect | substantial side effects such as colic
